Results as given in US6548053B1, “Control of intra-ocular pressure” (The University of Birmingham, priority 1999, dated 2003).

Assays:
Type in all cases: in vivo, human
healthy male volunteers = test: Clinical study: intra-ocular pressure (Goldmann applanation tonometer) under oral carbenoxolone; settings: for reduction in IOP during the day (08:00 to 20:00 hrs): baseline reduction 0.38±1.16; for reduction in IOP during the day (08:00 to 20:00 hrs), percent: baseline 2.51%; for IOP of one subject vs days 1 and 2 (FIG. 3): both eyes
Experimental: (§1) A clinical study was undertaken to assess the functional significance of 11β-HSD within the eye by oral administration of carbenoxolone, a known inhibitor of both 11β-HSD1 and 11β-HSD2. The study was undertaken on eight healthy male volunteers who were not on any systemic or topical medications and had no family history of glaucoma. Baseline intra-ocular pressure readings were measured using the same Goldmann applanation tonometer at 08:00, 12:00, 16:00 and 20:00 hours on two consecutive days. Systolic and diastolic blood pressures were also measured at each time point. Venous blood was analysed for serum electrolytes on day one and urine was collected for 24-hour urinary free cortisol and GC/MS for cortisol/cortisone ratios. The subjects then commenced a course of 100 mg carbenoxolone taken orally three times a day for seven consecutive days. The IOP measurements and blood pressure recordings were repeated at each time point on the third and seventh day of carbenoxolone ingestion (i.e. days five and nine of the study). Urea and electrolytes were also measured on these days and inhibition of 11β-HSD was confirmed by comparing the original urinary F/E ratio with that from urine aliquoted from a further 24-hour collection performed between days six and seven of ingestion. […] There was no difference between each eye of each subject. The IOP was lower on day seven of ingestion (11.50±2.08) than on day three (12.48±1.48) compared with the mean baseline values (p<0.0001 for both days), the difference between days three and seven being significant (p<0.001). There was also a small reduction in intra-ocular pressure during the course of the day, i.e. from 08:00 hrs to 20:00 hrs (baseline reduction of0.38±1.16 (2.51%), p=0.076).

11β-HSD = test: Clinical study: urinary free cortisol and GC/MS urinary steroid ratios confirming inhibition of 11β-HSD
Experimental: as §1, with “In addition, there” for “There”, “a significant decrease in” for “no difference between each eye of each subject. The IOP was lower on day seven of ingestion (11.50±2.08) than on day three (12.48±1.48) compared with”, “tetrahydrocortisol (THF)+allo-THF/tetrahydrocortisone (THE) ratio (pre-THF+allo-THF/THE=0.92±0.23, per-THF+allo-THF/THE=0.7±0.19, p=0.0012). This reflects” for “mean baseline values (p<0.0001 for both days),”, “relative 11β-HSD1/HSD2 activities predominantly” for “difference between days three and seven being significant (p<0.001). There was also a small reduction”, “in” for “in intra-ocular pressure during”, “liver.” for “course of the day, i.e. from 08:00 hrs to 20:00 hrs (baseline reduction of0.38±1.16 (2.51%), p=0.076).”

[1] = Clinical study: systolic and diastolic blood pressure and serum electrolytes; settings: throughout the study, 100 mg orally three times a day for seven days
Experimental: A clinical study was undertaken to assess the functional significance of 11β-HSD within the eye by oral administration of carbenoxolone, a known inhibitor of both 11β-HSD1 and 11β-HSD2. The study was undertaken on eight healthy male volunteers who were not on any systemic or topical medications and had no family history of glaucoma. Baseline intra-ocular pressure readings were measured using the same Goldmann applanation tonometer at 08:00, 12:00, 16:00 and 20:00 hours on two consecutive days. Systolic and diastolic blood pressures were also measured at each time point. Venous blood was analysed for serum electrolytes on day one and urine was collected for 24-hour urinary free cortisol and GC/MS for cortisol/cortisone ratios. The subjects then commenced a course of 100 mg carbenoxolone taken orally three times a day for seven consecutive days. The IOP measurements and blood pressure recordings were repeated at each time point on the third and seventh day of carbenoxolone ingestion (i.e. days five and nine of the study). Urea and electrolytes were also measured on these days and inhibition of 11β-HSD was confirmed by comparing the original urinary F/E ratio with that from urine aliquoted from a further 24-hour collection performed between days six and seven of ingestion.
There was no difference between each eye of each subject. […]

CC1(C)[C@@H](OC(=O)CCC(=O)O)CC[C@]2(C)[C@H]3C(=O)C=C4[C@@H]5C[C@@](C)(C(=O)O)CC[C@]5(C)CC[C@@]4(C)[C@]3(C)CC[C@@H]12 [carbenoxolone]
reduction in IOP during the day (08:00 to 20:00 hrs) (healthy male volunteers; day seven of ingestion, p=0.0006): 2.25±1.91
reduction in IOP during the day (08:00 to 20:00 hrs), percent (healthy male volunteers; day seven of ingestion): 17.31%
reduction in IOP during the day (08:00 to 20:00 hrs) (healthy male volunteers; day three of ingestion, p=0.0058): 0.86±0.83
reduction in IOP during the day (08:00 to 20:00 hrs), percent (healthy male volunteers; day three of ingestion): 6.51%
per-IOP (mean IOP on ingesting carbenoxolone) (healthy male volunteers; eight subjects, 100 mg orally three times a day, pre-IOP 14.7±1.39): 12.00±1.87
IOP on day seven of ingestion (healthy male volunteers; eight subjects, day seven of ingestion (study day 9), p<0.0001 vs mean baseline): 11.50±2.08
IOP on day three of ingestion (healthy male volunteers; eight subjects, day three of ingestion (study day 5), p<0.0001 vs mean baseline): 12.48±1.48
subjects showing a decrease in IOP (healthy male volunteers; eight subjects, drop significant in seven individuals (<0.01)): All eight subjects showed a decrease in IOP
overall reduction in IOP (healthy male volunteers; mean of eight subjects, 100 mg orally three times a day for seven days, vs pre-IOP 14.7±1.39, p<0.000001): 18.2%
IOP of one subject vs days 1 and 2 (FIG. 3) (healthy male volunteers; day 5 (third day of ingestion)): generally lower
IOP of one subject vs days 1 and 2 (FIG. 3) (healthy male volunteers; day 9 (seventh day of ingestion)): even lower
24-hour urinary free cortisol (11β-HSD; 24-hour urine between days six and seven of ingestion vs baseline): no significant change
per-F/E (urinary cortisol/cortisone ratio by GC/MS) (11β-HSD; 24-hour urine between days six and seven of ingestion, pre-F/E 0.497±0.189, p=0.004): 1.144±0.382
per-THF+allo-THF/THE ratio (11β-HSD; urine on ingestion, pre value 0.92±0.23, p=0.0012): 0.7±0.19
serum electrolytes [1]: remained stable
systolic and diastolic blood pressures [1]: remained stable
